{
  "source": "patent US5629298A",
  "about": "“Adenosine as a positive inotrop in the compromised heart” (University of Massachusetts Medical Center, priority 1995, dated 1997)",
  "key": {"[1]": {"test_system": "ventricular myocyte membrane adenylyl cyclase", "assay": "Adenylyl cyclase activity of ventricular myocyte membranes", "format": "biochemical, rat", "protocol": "After a 3-4 hour incubation period, myocytes were harvested by placing the culture dishes on ice; aspirating and discarding the culture medium; scraping the attached cells into 1 ml of ice cold buffer (pH 7.4) containing 10 mM HEPES and 1 mM dithiothreitol (DTT); and transferring the mixture to a 40 ml centrifuge tube. The culture dishes were rinsed twice with buffer, and the rinses were added to the centrifuge tube. The myocytes were centrifuged at 45,000 x g for 45 minutes and the supernatant was discarded. The pellet was resuspended in 40 mM HEPES (pH 7.4) to yield 3.5-4 mg protein/ml and homogenized with a small clearance Dounce tissue grinder (8 strokes). The membranes were centrifugated as described above, resuspended (3-4 mg protein/ml) in 40 mM HEPES (pH 7.4), and assayed for adenylyl cyclase activity immediately or stored at -80° C. and assayed within 10 days.\nThe assay system used to measure adenylyl cyclase activity minimizes the formation of endogenous adenosine. The assay used was essentially as described by Romano et al. (supra). Myocyte membranes (15-25 μg protein) were incubated in 50 μl of a buffer containing 40 mM HEPES (pH 7.4), 5 mM MgCl2, 1 mM DTT, 5.5 mM KCl, 0.1 mM 2'-deoxy-cAMP (dcAMP), 0.1 mM 2'-deoxy ATP (dATP), 20 mM phosphoenolpyruvate, 2 units pyruvate kinase, 0.25 units adenosine deaminase, 1 mM ascorbic acid, 100 mM NaCl, 0.1 mM ethyleneglycol-bis (β-aminoethylether) N,N,N',N',-tetroaceticacid (EGTA), 10 μM guanosine 5'-triphosphate (GTP), and ~2×10^6 counts/minutes of [α-^32 P]dATP for 20 minutes at 30° C. The reaction was stopped by adding 40 μl of a solution containing 2% sodium dodecyl sulfate (SDS), 45 mM ATP, 1.3 mM cAMP, and [^3 H]dcAMP (~4000 count/min) and by boiling for 2 minutes."}, "[2]": {"test_system": "rat heart", "assay": "Isolated perfused heart, normoperfused or hypoperfused (mechanically depressed): LVP, +dP/dtmax, -dP/dtmax", "details": "for increase in +dP/dtmax / increase in -dP/dtmax / increase in LVP: hypoperfusion (mechanically depressed heart); for increase in +dP/dtmax / increase in -dP/dtmax / increase in LVP / effect on the contractile variables (LVP, +dP/dtmax, -dP/dtmax): adenosine 2×10^-5 M, DPCPX 2×10^-7 M; for increase in +dP/dtmax / increase in -dP/dtmax / increase in LVP / activation at 0.01 µM: isoproterenol 10^-8 M; for effect on the contractile variables (LVP, +dP/dtmax, -dP/dtmax) / activation at 0.01 µM: normoperfusion; for effect on the contractile variables (LVP, +dP/dtmax, -dP/dtmax): CGS-21680 2×10^-6 M; for activation at 0.01 µM: Rattus norvegicus, 5 seconds", "protocol": "Male Sprague-Dawley rats (500-550 g) were anesthetized with pentobarbital (40 mg/kg, i.p.) and treated with heparin (500 units, i.p.) for 15 minutes. Hearts were excised, rinsed in iced physiological saline (\"PS\") and perfused with PS (37° C.) via an aortic cannula at a constant rate of 18-20 ml/min. Perfusion pressure ranged from 50 to 60 mm Hg. The PS contained: NaCl, 118 mM; KCl, 4.7 mM; CaCl2, 2.5 mM; NaHCO3, 25 mM; KH2 PO4, 1.2 mM; MgSO4 1.2 mM; glucose 10 mM; and pyruvate 1.8 mM. The pH was maintained at 7.4 by gassing the PS with a 95% O2 /5% CO2 gas mixture. Platinum wire electrodes were inserted into the right atrium to allow pacing of the heart (300 contractions per minute) throughout the perfusion period. Developed left ventricular pressure (LVP) was measured with a saline-filled balloon inserted into the lumen of the left ventricle via the left atrium and attached by a polyethylene cannula to a pressure transducer. The pressure signal was electronically differentiated to obtain the maximum rates of left ventricular pressure development (+dP/dtmax) and relaxation (-dP/dtmax). Balloon volume was varied until the maximal obtainable dP/dt was attained. This optimal preload, ranging from 5 to 10 mm Hg, was maintained constant, permitting isovolumic contraction of the heart. Aortic perfusion pressure was monitored with another pressure transducer. All the LVP, +dP/dtmax, -dP/dtmax and aortic perfusion data were continually recorded on a multichannel polygraph. At the end of the experiment, the wet heart weights were determined; they ranged from 1.4 to 1.8 g.\nAfter instrumentation, the hearts were normoperfused at 18-20 ml/min for 20 minutes, resulting in an aortic perfusion pressure of 50-60 mm Hg. Isoproterenol, adenosine, CGS-21680, DPCPX, atenolol, or a combination of these agents was administered for 1 to 2 minutes, via the aortic perfusion cannula, at 1/100th the perfusion flow rate, to achieve the stated PS concentrations. Isoproterenol was administered for only 5 seconds. To cause mechanical depression of the perfused hearts, the perfusion flow was lowered 5-6 ml/min. The resulting aortic perfusion pressure decreased to 20-30 mm Hg. The various agents either alone or in combination were administered via the PS to the hypoperfused hearts at 1/100th the perfusion flow rate, at the concentrations indicated."}},
  "note": "Read-outs that look alike come from different tables or passages of the source.",
  "data": [
    {"smiles": "Nc1ncnc2c1ncn2[C@@H]1O[C@H](CO)[C@@H](O)[C@H]1O", "note": "[adenosine]", "values": [
      {"measurement": "adenylyl cyclase activity above basal levels", "setting": "[1]; adenosine at 0 to 1 mM, absence or presence of 1 μM DPCPX, ventricular myocyte membranes", "value": "did not increase"},
      {"measurement": "increase in +dP/dtmax", "setting": "[2]", "value": 25, "unit": "%"},
      {"measurement": "increase in -dP/dtmax", "setting": "[2]", "value": 33, "unit": "%"},
      {"measurement": "increase in LVP", "setting": "[2]", "value": 26, "unit": "%"},
      {"measurement": "effect on the contractile variables (LVP, +dP/dtmax, -dP/dtmax)", "setting": "[2]", "value": "did not affect"}
    ]},
    {"smiles": "CCNC(=O)[C@H]1O[C@@H](n2cnc3c(N)nc(NCCc4ccc(CCC(=O)O)cc4)nc32)[C@H](O)[C@@H]1O", "note": "[CGS-21680, 2-p-(2-carboxy-ethyl)phenethyl-amino-5'-N-ethylcarboxamido-adenosine]", "values": [
      {"measurement": "increase in cyclase activity", "setting": "[1]; CGS-21680 in the presence of 0.1 μM DPCPX", "value": 49, "unit": "%"},
      {"measurement": "EC50", "setting": "[1]; in the presence of 0.1 μM DPCPX, read-out: EC50 for increase of adenylyl cyclase", "value": "260 ± 80", "unit": "nM"},
      {"measurement": "adenylyl cyclase response", "setting": "[1]; no DPCPX, activating at 1-10 μM, reducing this activation at 0.1-1 mM", "value": "biphasic response"},
      {"measurement": "effect on the contractile variables (LVP, +dP/dtmax, -dP/dtmax)", "setting": "[2]", "value": "without affect"}
    ]},
    {"smiles": "CC(C)NCC(O)c1ccc(O)c(O)c1", "note": "(stereo not drawn) [ISO, isoproterenol]", "values": [
      {"measurement": "increase in adenylyl cyclase activity", "setting": "[1]; ISO at 0.1 μM in the presence of 1 μM PIA", "value": 23, "unit": "%"},
      {"measurement": "increase in adenylyl cyclase activity", "setting": "[1]; ISO at 0.1 μM, in the absence of PIA", "value": 88, "unit": "%"},
      {"measurement": "ISO-induced increase in adenylyl cyclase activity", "setting": "[1]; ISO at 0.1 μM, with PIA and DPCPX at 0.1 μM", "value": 70, "unit": "%"},
      {"measurement": "activation at 0.01 µM", "setting": "[2]; read-out: increase in +dP/dtmax", "value": 167, "unit": "%"},
      {"measurement": "activation at 0.01 µM", "setting": "[2]; read-out: increase in -dP/dtmax", "value": 216, "unit": "%"},
      {"measurement": "activation at 0.01 µM", "setting": "[2]; read-out: increase in LVP", "value": 119, "unit": "%"},
      {"measurement": "increase in +dP/dtmax", "setting": "[2]", "value": 114, "unit": "%"},
      {"measurement": "increase in -dP/dtmax", "setting": "[2]", "value": 225, "unit": "%"},
      {"measurement": "increase in LVP", "setting": "[2]", "value": 171, "unit": "%"}
    ]}
  ]
}
